Legend:
U937 cells [1] = test: cytochrome c release into the cytosol; type: cell-based, human; settings: FP 100 nM; for cytochrome c release: SB 1 mM, alone from 1 hr, both drugs ≧6 hr
Method: Cytochrome c release. The assay for cytochrome c release was performed as previously described by Single et al. [1998] with modifications. At designated times following drug treatment, 4×10^6 cells were washed with PBS and resuspended in 50 μl of assay buffer (75 mM NaCl, 1 mM NaH2P0^4, 8 mM Na2HP0^4, 1 mM EDTA, 250 mM sucrose) containing digitonin (700 μg/ml). Three minutes following addition of digitonin assay buffer, cells were pelleted by centrifugation. The supernatants were transferred to tubes containing 2× Laemmli buffer (50 μl) and boiled for 5 minutes. Proteins were separated by SDS-PAGE as described above.
Analysis of cytosolic cytochrome c. A previously described technique was employed.^32 After treatment, cells (5×10^7/condition) were harvested by centrifugation at 600 g for 10 min at 4° C. The S-100, or cytosolic fraction, was prepared as described with minor modifications. Cell pellets were washed once with ice-cold phosphate-buffered saline and resuspended in five volumes of buffer A (20 mM Hepes-KOH, pH 7.5, 10 mM KCl, 1.5 mM MgCl2, 1 mM sodium EDTA, 1 mM sodium EGTA, 1 mM dithiothreitol, 0.1 mM phenylmethlysufonyl fluoride, and 250 mM sucrose; all Sigma. After chilling for 30 min on ice, the cells were disrupted by 15 strokes of a Potter-Elvehjem (PTFE-pestle) homogenizer. The homogenate was then centrifuged twice to remove unbroken cells and nuclei (3000 g for 10 min at 4° C.). The resulting supernatant was further centrifuged at 100,000 g for 1 h at 4° C., and the supernatants, designated as S-100 fractions, were immediately subjected to Western analysis as described above. For each condition, 25 μg of the S-100 fraction was loaded on the gel, and probed with the corresponding antibody.

U937 cells [2] = test: cell cycle analysis (propidium iodide, flow cytometry); type: cell-based, human
Method: Cell Cycle Analysis. Following drug treatment, cells were pelleted by centrifugation at 500 g×6 min, and resuspended in 70% ethanol. The cells were incubated on ice for at least 1 h and resuspended in 1 ml cell cycle buffer (0.38 mM Na-Citrate, 0.5 mg/ml RNase A, and 0.01 mg/ml propidium iodide) at a concentration of 10×10^5 cells/ml, stored in the dark at 4 C until analysis (24 h), using a Becton-Dickinson FACScan flow cytometer and Verity Winlist software (Verity Software, Topsham, Me.).

p21WAF1/CIP1 = test: Western analysis of p21WAF1/CIP1 expression in U937 cells; type: cell-based, human; settings: for p21WAF1/CIP1 levels: 1 mM SB, 100 nM FP, 1-24 hr
Method: (§1) Western analysis. Equal quantities of protein (15 μg/condition for MAPK, 40 μg/condition for cytochrome c, or 25 μg/condition) were separated by SDS-PAGE [underphosporylated pRB (7.5%), poly(ADP-ribose)polymerase or PARP (8.0%), p44/p42 MAPK (10%), p21, p27, procaspase 3 (12%), and cytochrome c (15%)] and electroblotted onto nitrocellulose. Western analysis of p44/p42 MAPK protein was performed according to the manufacturer's instructions (New England Biolabs); otherwise, studies were performed as previously described [Wang et al, 1998]. Briefly, U937 cells (5×10^6) were pelleted by centrifugation, resuspended in 50 μl PBS, lysed by the addition of 2× Laemmli buffer and boiled for 5 min. Proteins were quantified with Coomassie protein assay reagent. Blots were blocked in PBS-T/5% milk, washed twice with PBS-T, and incubated overnight at 4° C. with the appropriate primary antibody. The blots were washed with PBS-T and incubated with a horseradish-peroxidase conjugated secondary antibody diluted appropriately in PBS-T/5% mill. Following incubation, blots were developed by enhanced chemiluminescence exposure to Kodak X-OMAT film (Eastman Kodak Co., Rochester, N.Y.) and reprobed with antibodies directed against actin to control for equal loading of protein.
(§2) Alternatively, whole cell-pellets were washed twice in PBS, resuspended in PBS, and lysed by the addition of I volume of loading buffer. Lysates were boiled for 10 min, centrifuged at 12,800 g for 5 min and quantified using Coomassie protein assay reagent (Pierce, Rockfold, Ill.). 25 μg of total proteins per point were separated by SDS-PAGE and electro-blotted to nitrocellulose. The blots were blocked in 5% non-fat milk in PBS-T and probed for 1 h with the appropriate dilution of primary antibody. Blots were washed 3×10 min in PBS-T and then incubated with a 1:2000 dilution of peroxidase-conjugated secondary antibody for 1 h at room temperature. Blots were again washed 3×10 min in PBS-T and then developed by enhanced chemiluminesence. Where indicated, blots were stripped and re-probed with antibodies directed against actin.
Primary antibodies for both p21^WAF1/CIP1 and p27^KIP1 (Transduction Laboratories, Lexington, Ky.) were used in a 1:1000 dilution; PARP (1:1000; Oncogene Research Products, Cambridge, Mass.); pro-caspase 3 (1:1000; Transduction Laboratories); cytochrome c (1:2000; Pharmingen); bcl-2 (1:2000; DAKO, Denmark); bax (1:1000; Santa Cruz Biotechnology, Inc., Santa Cruz, Calif.); bid (1:1000; Cell Signaling, Beverly, Mass.); XIAP (1:1000; Cell Signaling); Mcl-1 (1:1000; Pharmingen); bak (1:1000; Calbiochem); c-Myc (1:1000; Pharmingen, San Diego, Calif.); actin (1:2000; Sigma Chemicals, St. Louis, Mo.); cyclins-D1, -A and -E (1:1000; Pharmingen); pRb, underP-pRb, pRb-CDK2 and pRb-CDK4 (all 1:1000; Pharmingen); Ac-H3 and Ac-H4 (both 1:1000; Upstate Biotechnology, Lake Placid, N.Y.); E2F-1 (Upstate Biotechnology). Secondary antibodies conjugated to horseradish peroxidase were obtained from Kirkegaard and Perry Laboratories, Inc. (Gaithersburg, Md.). Coomassie protein assay reagent was purchased from Pierce (Rockford, Ill.), and an enhanced chemiluminescence kit was obtained from New England Nuclear (Boston, Mass.). The pan-caspase inhibitor BOC-D-fmk and the caspase 8 inhibitor Z-IETD-fmk were purchased from Enzyme System Products (Livermore, Calif.) All other chemicals or reagents were purchased from Sigma.

[3] = system: U937 myelomonocytic human leukemia cells; test: percent cell death; type: cell-based; settings: 1 μM SAHA, 100 nM FP, 24 hours after administration
p27KIP1 = test: Western analysis of p27KIP1 expression in U937 cells; type: cell-based, human; settings: 10 nM PMA, FP 50-100 nM, 24 h
Method: as §1, with “Following incubation, blots were developed by enhanced chemiluminescence exposure to Kodak X-OMAT film (Eastman Kodak Co., Rochester, N.Y.) and reprobed with antibodies directed against actin to control for equal loading of protein.” left out
Alternatively, whole cell-pellets were washed twice in PBS, resuspended in PBS, and lysed by the addition of I volume of loading buffer. Lysates were boiled for 10 min, centrifuged at 12,800 g for 5 min and quantified using Coomassie protein assay reagent (Pierce, Rockfold, Ill.). […]

cdk2 and cdk4 = test: Western analysis of cdk2/4-phosphorylated pRb in U937 cells; type: cell-based, human; settings: FP 100 nM, SB 1 mM
Method: as §2, with “actin. […]” for “actin.”

SMILES | cytochrome c release (U937 cells [1]) | percentage of cells arresting in G0/G1 (U937 cells [2]; 24 h, 1 mM SB) | percentage of cells arresting in G0/G1 (U937 cells [2]; 48 h, 1 mM SB or 100 nM FP) | p21WAF1/CIP1 levels (p21WAF1/CIP1) | release of cytochrome c into the cytosol (U937 cells [1]; PMA 10 nM, 6 h) | cell cycle distribution (U937 cells [2]; 24 h after administration of SAHA, FP or both) | cell death [3] | p21WAF1/CIP1 expression (p21WAF1/CIP1; 10 nM PMA, FP 50-100 nM, 24 h) | p27KIP1 expression (p27KIP1) | cdk2/4 activities (cdk2/4-phosphorylated pRb) (cdk2 and cdk4)
CCCC(=O)[O-].[Na+] [SB, sodium butyrate] | increased modestly | 48.1% | 81.6% | time-dependent increase | – | – | – | – | – | –
CN1CC[C@H](c2c(O)cc(O)c3c(=O)cc(-c4ccccc4Cl)oc23)[C@H](O)C1 [FP, Flavopiridol] | increased modestly | – | ~53% | did not modify | some effect | increase in the G0/G1 population | modest level of cell death | no effect | no effect | moderate inhibition
